Reference: patent publication US8916711B2, “Imidazothiazole-chalcone derivatives as potential anticancer agents and process for the preparation thereof” (Council of Scientific and Industrial Research, priority 2009, dated 2014)
pIC50: −log10 of the molar value. Like-named read-outs stand apart in the source and are kept apart here.

Columns and labels:
Assay type in all cases: cell-based
CCRF-CEM = assay: NCI in vitro cytotoxicity (SRB, 48 h), Leukemia panel; conditions: Homo sapiens, 48 h exposure
RPMI-8226 = assay: as above; conditions: Homo sapiens; RPMI-8226, Leukemia; 48 h exposure
A549/ATCC = assay: NCI in vitro cytotoxicity (SRB, 48 h), Non-small cell lung panel; conditions: Homo sapiens, 48 h exposure
HOP-62 = assay: as above; conditions: Homo sapiens; HOP-62, Non-small cell lung; 48 h exposure
NCI-H23 = assay: as above; conditions: Homo sapiens, 48 h exposure
NCI-H460 = assay: as above; conditions: Homo sapiens, 48 h exposure
COLO 205 = assay: NCI in vitro cytotoxicity (SRB, 48 h), Colon panel; conditions: Homo sapiens; COLO 205, Colon; 48 h exposure
HCC-2998 = assay: NCI in vitro cytotoxicity (SRB, 48 h), Colon panel; conditions: Homo sapiens
HCT-116 = assay: NCI in vitro cytotoxicity (SRB, 48 h), Colon panel; conditions: Homo sapiens; for pIC50: HCT-116, HCT116, Table 4, read-out: Comparative efficacy
HT29 = assay: NCI in vitro cytotoxicity (SRB, 48 h), Colon panel; conditions: Homo sapiens, HT-29, 48 h exposure
SW-620 = assay: NCI in vitro cytotoxicity (SRB, 48 h), Colon panel; conditions: Homo sapiens; SW-620, Colon; 48 h exposure
SF-268 = assay: NCI in vitro cytotoxicity (SRB, 48 h), CNS panel; conditions: Homo sapiens; SF-268, CNS; 48 h exposure
SF-295 = assay: NCI in vitro cytotoxicity (SRB, 48 h), CNS panel; conditions: Homo sapiens; SF-295, CNS; 48 h exposure
SNB-75 = assay: NCI in vitro cytotoxicity (SRB, 48 h), CNS panel; conditions: Homo sapiens; SNB-75, CNS; 48 h exposure
IGROV1 = assay: NCI in vitro cytotoxicity (SRB, 48 h), Ovarian panel; conditions: Homo sapiens, IGROV-1
OVCAR-3 = assay: as above; conditions: Homo sapiens; OVCAR-3, Ovarian; 48 h exposure
OVCAR-4 = assay: as above; conditions: Homo sapiens; OVCAR-4, Ovarian; 48 h exposure
OVCAR-8 = assay: as above; conditions: Homo sapiens
A498 = assay: NCI in vitro cytotoxicity (SRB, 48 h), Renal panel; conditions: Homo sapiens, 48 h exposure
ACHN = assay: NCI in vitro cytotoxicity (SRB, 48 h), Renal panel; conditions: Homo sapiens, 48 h exposure
PC-3 = assay: NCI in vitro cytotoxicity (SRB, 48 h), Prostate panel; conditions: Homo sapiens; PC-3, Prostate; 48 h exposure
DU-145 = assay: as above; conditions: Homo sapiens; DU-145, Prostate; 48 h exposure
MCF7 = assay: NCI in vitro cytotoxicity (SRB, 48 h), Breast panel; conditions: Homo sapiens; for pIC50: MCF7, MCF-7, Table 4, read-out: Comparative efficacy; for GI50: MCF7, Breast, 48 h exposure
Description: (§1) The imidazothiazole-chalcone hybrids 7a, 7e, 7f, 8f and 19e have been tested against sixty human tumour cell lines derived from nine cancer types (leukemia, non-small cell lung cancer, colon cancer, CNS cancer, melanoma, ovarian cancer, renal cancer, prostate cancer and breast cancer) as per NCI protocol. For each compound, dose response curves for individual cell lines have been measured at a minimum of five concentrations at 10 fold dilutions. A protocol of 48 h continuous drug exposure has been used, and a sulforhodamine B (SRB) protein assay was used to estimate cell viability or growth. The concentration for 50% cell growth inhibition (GI50), total cell growth inhibition (TGI, 0% growth) and 50% cell death (LC50, […]) compared with the control has been calculated (Table-1).

MDA-MB-231/ATCC = assay: as above; conditions: Homo sapiens; for GI50: Breast, 48 h exposure; for pIC50: Table 4, read-out: Comparative efficacy
Description: as §1

T-47D = assay: as above; conditions: Homo sapiens, T47D, 48 h exposure
LOX IMVI = assay: NCI in vitro cytotoxicity (SRB, 48 h), Melanoma panel; conditions: Homo sapiens, 48 h exposure
MDAMB-435 = assay: as above; conditions: Homo sapiens, MDA-MB-435; MDAMB-435, Melanoma; 48 h exposure
SK-MEL-2 = assay: as above; conditions: Homo sapiens; SK-MEL-2, Melanoma; 48 h exposure
SK-MEL-28 = assay: as above; conditions: Homo sapiens; SK-MEL-28, Melanoma; 48 h exposure
UACC-25 = assay: as above; conditions: Homo sapiens; UACC-25, Melanoma; 48 h exposure
Colon cancer cell lines = assay: NCI in vitro cytotoxicity, whole panel; conditions: Homo sapiens; for CC50: read-out: Log10 LC50 (converted)
CNS cancer cell lines = assay: NCI in vitro cytotoxicity, whole panel; conditions: Homo sapiens; for CC50: read-out: Log10 LC50 (converted)
[1] = test system: Ovarian cancer cell lines; assay: NCI in vitro cytotoxicity, whole panel; conditions: Homo sapiens; for CC50: read-out: Log10 LC50 (converted)
HS 578T = assay: NCI in vitro cytotoxicity (SRB, 48 h), Breast panel; conditions: Homo sapiens, 48 h exposure
M14 = assay: NCI in vitro cytotoxicity (SRB, 48 h), Melanoma panel; conditions: Homo sapiens, 48 h exposure
[2] = OVCAR-8, Ovarian, 48 h exposure
[3] = Colon, average of six to eight cell lines, read-out: Log10 GI50 (converted)
[4] = Colon, average of six to eight cell lines
[5] = exposure period of at least 48 hrs, read-out: GI50, range over colon cell lines
[6] = CNS cell, exposure period of at least 48 hrs, read-out: GI50, range over CNS cell lines
[7] = CNS, average of six to eight cell lines, read-out: Log10 GI50 (converted)
[8] = CNS, average of six to eight cell lines
[9] = Ovarian, average of six to eight cell lines, read-out: Log10 GI50 (converted)
[10] = Ovarian, average of six to eight cell lines
[11] = exposure period of at least 48 hrs, read-out: GI50, range over ovarian cell lines

Structure (SMILES): COc1cc(C(=O)/C=C/c2c(C(F)(F)F)nc3sccn23)cc(OC)c1OC [Compound 7f, (E)-3-(6-(trifluoromethyl)imidazo[2,1-b]thiazol-5-yl)-1-(3,4,5-trimethoxyphenyl)prop-2-en-1-one]
- GI50 (CCRF-CEM): 1240 nM
- GI50 (RPMI-8226): 1080 nM
- GI50 (A549/ATCC): 3440 nM
- GI50 (HOP-62): 1930 nM
- GI50 (NCI-H23): 1720 nM
- GI50 (NCI-H460): 1650 nM
- GI50 (COLO 205): 1940 nM
- GI50 (HCC-2998; HCC-2998, Colon, 48 h exposure): 1710 nM
- GI50 (HCC-2998; HCC-2998, colon): 1710 nM
- pIC50 (HCT-116): 6.00
- GI50 (HCT-116; HCT-116, Colon, 48 h exposure): 1010 nM
- GI50 (HCT-116; HCT-116, colon): 1010 nM
- GI50 (HT29): 1830 nM
- GI50 (SW-620): 1670 nM
- GI50 (SF-268): 1740 nM
- GI50 (SF-295): 2580 nM
- GI50 (SNB-75): 1870 nM
- GI50 (IGROV1; IGROV1, Ovarian, 48 h exposure): 2660 nM
- GI50 (OVCAR-3): 1860 nM
- GI50 (OVCAR-4): 3050 nM
- GI50 (OVCAR-8; [2]): 3080 nM
- GI50 (A498): 1890 nM
- GI50 (ACHN): 1820 nM
- GI50 (PC-3): 2660 nM
- GI50 (DU-145): 1410 nM
- pIC50 (MCF7): 5.90
- GI50 (MCF7): 1250 nM
- GI50 (MDA-MB-231/ATCC): 2920 nM
- pIC50 (MDA-MB-231/ATCC): 5.53
- GI50 (T-47D): 2120 nM
- GI50 (LOX IMVI): 1360 nM
- GI50 (MDAMB-435): 1610 nM
- GI50 (SK-MEL-2): 2260 nM
- GI50 (SK-MEL-28): 1690 nM
- GI50 (UACC-25): 1900 nM
- GI50 (Colon cancer cell lines; [3]): 1620 nM
- CC50 (Colon cancer cell lines; [4]): 8510 nM
- GI50 (Colon cancer cell lines; [5]): 1010 to 1940 nM
- GI50 (CNS cancer cell lines; [6]): 1380 to 2670 nM
- GI50 (CNS cancer cell lines; [7]): 1910 nM
- CC50 (CNS cancer cell lines; [8]): 12600 nM
- GI50 [1, 9]: 2690 nM
- CC50 [1, 10]: 57500 nM
- GI50 [1, 11]: 1860 to 3080 nM

Structure (SMILES): COc1ccc(-c2nc3sccn3c2/C=C/C(=O)c2cc(OC)c(OC)c(OC)c2)cc1 [Compound 7a, (E)-3-(6-(4-methoxyphenyl)imidazo[2,1-b]thiazol-5-yl)-1-(3,4,5-trimethoxyphenyl) prop-2-en-1-one]
- GI50 (CCRF-CEM): 3080 nM
- GI50 (A549/ATCC): 2210 nM
- GI50 (HOP-62): 2210 nM
- GI50 (NCI-H23): 2180 nM
- GI50 (NCI-H460): 2700 nM
- GI50 (COLO 205): 2520 nM
- GI50 (HCC-2998; HCC-2998, Colon, 48 h exposure): 1770 nM
- GI50 (HCC-2998; HCC-2998, colon): 1770 nM
- pIC50 (HCT-116): 5.73
- GI50 (HCT-116; HCT-116, Colon, 48 h exposure): 1880 nM
- GI50 (HCT-116; HCT-116, colon): 1880 nM
- GI50 (HT29): 3120 nM
- GI50 (SW-620): 3160 nM
- GI50 (SF-268): 2890 nM
- GI50 (SF-295): 2730 nM
- GI50 (SNB-75): 2290 nM
- GI50 (IGROV1; IGROV1, Ovarian, 48 h exposure): 210 nM
- GI50 (IGROV1; IGROV1, ovarian): 210 nM
- pIC50 (IGROV1; IGROV1, Table 4, read-out: Comparative efficacy): 6.68
- GI50 (OVCAR-3): 2230 nM
- GI50 (OVCAR-4): 4050 nM
- GI50 (OVCAR-8; [2]): 2010 nM
- GI50 (OVCAR-8; OVCAR-8, ovarian): 2010 nM
- GI50 (A498): 2990 nM
- GI50 (ACHN): 4080 nM
- GI50 (PC-3): 3100 nM
- GI50 (DU-145): 2620 nM
- pIC50 (MCF7): 5.69
- GI50 (MCF7): 2020 nM
- GI50 (MDA-MB-231/ATCC): 2550 nM
- pIC50 (MDA-MB-231/ATCC): 5.59
- GI50 (HS 578T): 1900 nM
- GI50 (T-47D): 2260 nM
- GI50 (LOX IMVI): 2420 nM
- GI50 (M14): 2330 nM
- GI50 (MDAMB-435): 2850 nM
- GI50 (SK-MEL-2): 2420 nM
- GI50 (SK-MEL-28): 4110 nM
- GI50 (Colon cancer cell lines; [3]): 2630 nM
- CC50 (Colon cancer cell lines; [4]): 72400 nM
- GI50 (Colon cancer cell lines; [5]): 1770 to 3450 nM
- GI50 (CNS cancer cell lines; [6]): 1660 to 3540 nM
- GI50 (CNS cancer cell lines; [7]): 2630 nM
- CC50 (CNS cancer cell lines; [8]): ≥ 100000 nM
- GI50 [1, 9]: 1860 nM
- CC50 [1, 10]: 70800 nM
- GI50 [1, 11]: 210 to 4050 nM
